Assay results as given in patent publication US20140024683A1, “CHLORIDE CHANNEL AND CHLORIDE TRANSPORTER MODULATORS FOR THERAPY IN SMOOTH MUSCLE DISEASES” (priority 2011, published 2014).

What was measured:
[1] = test system: guinea pig tracheal rings; experiment: Attenuation of the initiation of an acetylcholine contraction by pretreatment, guinea pig tracheal rings; details: pretreatment with single agent alone
Experimental: (§1) Animal protocols were approved by the Columbia University Animal Care and Use Committee. Male Hartley guinea pigs weighing approximately 400 g were anesthetized with intraperitoneal injection of sodium pentobarbital (100 mg/kg). Trachea were removed and transferred to ice cold Krebs-Henseleit (KH) buffer of the following composition (in mM): NaCl 118, KCl 5.6, CaCl2 0.5, MgSO4 0.24, NaH2PO4 1.3, NaHCO3 25, glucose 5.6, pH 7.4. Epithelial-denuded tracheal rings were prepared using a dissecting microscope. Epithelium was removed by gently passing cotton fibers through the lumen of the tracheal rings. The rings were suspended in 4 mL-water jacketed organ baths (37° C.: Radnoti Glass Technology, Monrovia, Calif.) and connected to a Grass FT03 force transducer (Grass Telefactor, West Warwick, R.I.) using silk sutures. The transducers were coupled to the computer with BioPac hardware and data was collected using Acqknowledge 7.3.3 software (BioPac Systems, Goleta, Calif.). KH buffer was bubbled with a gas mixture of 95% oxygen and 5% carbon dioxide and buffer was exchanged every 15 minutes for 1 hour during equilibration of tracheal rings at 1 g resting tension. […].
Compounds 1 and 13 were tested for their abilities to attenuate the initiation phase of an acetylcholine contraction, as acetylcholine is a natural bronchoconstrictor and prevention of contraction would have clinical utility. […]

[2] = test system: human airway smooth muscle; experiment: Relaxation of acetylcholine contraction in human airway smooth muscle strips; details: 10 μM bumetanide alone
Experimental: Studies using de-identified human tissue were reviewed by the Columbia University Institutional Review Board and deemed not human subjects research. Tissues were obtained from healthy, normal organ donor discarded surgical waste subsequent to lung transplant surgery. Tissues were collected after transplant and placed in DMEM media (GIBCO) and bubbled overnight in 5% carbon dioxide and 95% oxygen at 4° C. The following morning, the smooth muscle tissue was carefully dissected under a dissecting microscope and the epithelium removed. The strips were anchored in the organ bath as described above using KH buffer of the same composition. The strips were allowed to equilibrate for 1 hour with buffer exchanges every 15 minutes and were treated with 10^−6 M tetrodotoxin, 10^−5 M pyrilamine, and 10^−5
M MK571. Strips were contracted with an EC50 dose of acetylcholine (Ach)
This experiment was then repeated with human airway smooth muscle to investigate clinical relevance as a model of bronchospasm in humans.

[3] = test system: guinea pig tracheal rings; experiment: Potentiation of isoproterenol relaxation of acetylcholine contraction, guinea pig tracheal rings; details: 10 μM bumetanide
Experimental: as §1
Therefore, we tested whether the chloride channel blockers or modulation of chloride flux could be used in combination with β-agonists to potentiate their effects. […]. Therefore, a combination of treatment with compound 13 and bumetanide potentiated the relaxation effect of isoproterenol.

[4] = test system: human airway smooth muscle cells; experiment: FLIPR potentiometric dye membrane potential assay (Examples 9, 12); assay type: cell-based; details: 100 μM
Experimental: To determine whether blockade of CaCCs or NKCCs induce membrane potential changes in cultured human airway smooth muscle cells, the FLIPR in vitro fluorescent dye assay (Molecular Devices) was used as described by Wafford et al. (2009). Briefly, human airway smooth muscle cells were grown to 100% confluence in 96-well black-walled plates and were washed with warmed (37° C.) normal-chloride buffer [consisting of (in mM) 130 sodium chloride, 2 CaCl2, 1 MgCl2, 10 D-glucose, and 10 HEPES, pH 7.4] four times. A stock solution (100% dye) of FLIPR blue dye (Molecular Devices) was prepared by reconstitution of 1 vial (125 mg) with 100 ml of the normal-chloride buffer (assay buffer). A 50% working stock was prepared by further diluting the reconstituted blue dye 1:1 with assay buffer and was used to load cells (90 μl/well) over 20 minutes at 37° C. All reagents were dissolved in assay buffer. Baseline fluorescence was measured for 3 minutes prior to the first control additions (assay buffer). […] The fluorescence produced by membrane potential change following solution additions was quantified after subtracting changes induced by assay buffer alone.

[5] = test system: guinea pig tracheal rings; experiment: Relaxation of potassium gluconate contraction in guinea pig tracheal rings; details: 100 μM, 80 mM potassium gluconate
Experimental: as §1
Many chloride channel blockers are known to also stimulate potassium channels (Greenwood et al., 2007). Thus, we performed additional studies in the presence of a large extracellular concentration of potassium to ensure that our findings of compound 1 or 13 inhibiting a TEA-induced depolarizing contraction were not due to these compounds opening a potassium channel.

| SMILES | attenuation of the initiation of an acetylcholine contraction [1] | relaxation of acetylcholine contraction [2] | shift of the EC50 of isoproterenol [3] [fold] | membrane potential change (FLIPR) [4] | membrane potential change (FLIPR) ([4]; listed as NFA) | percent of potassium gluconate-induced contraction at 30 minutes [5] | percent of potassium gluconate-induced contraction at 30 minutes ([5]; listed as NFA) |
| --- | --- | --- | --- | --- | --- | --- | --- |
| CCCCNc1cc(C(=O)O)cc(S(N)(=O)=O)c1Oc1ccccc1 [bumetanide] | failed to significantly attenuate a contraction | failed to relax an acetylcholine contraction | 2.4 | – | – | – | – |
| O=C(O)c1cccnc1Nc1cccc(C(F)(F)F)c1 [niflumic acid] | – | – | – | hyperpolarized the cell membrane | hyperpolarizes the airway smooth muscle cell plasma membrane | 47.36%±4.6 | 47.4%±4.6 |
